Test results reported in patent EP3345917A1, “ANTIPROTOZOAL COMPOUNDS” (Bacoba AG, priority 2017, dated 2018).
Non-standard residues stand in square brackets, D forms with d. Residues, ends and D or L forms follow the SMILES beside them. *: point of attachment. NHCH2CH2(piperidin-1-yl) = C1CCN(CCN*)CC1; NH((S)CH(Me)CH2NMe2) = C[C@@H](CN(C)C)N*; NH(2-morpholinoethyl) = C(CN1CCOCC1)N*; Gly(octyl) = CCCCCCCC[C@H](N)C(=O)O; X11 = C[C@@H]1CN(CCN*)C[C@H](C)O1; Lauroyl = CCCCCCCCCCCC(=O)*; Hexanoyl = CCCCCC(=O)*; X13 = O=C(CCN1CCOCC1)*; Aib = CC(C)(N)C(=O)O; X2 = CN(C)CCN(C)*; Ms = CS(=O)(=O)*; βAla = NCCC(=O)O

Experiments:
[1] = system: Trypanosoma cruzi trypomastigote forms (Tulahuen strain); test: Intracellular Trypanosoma cruzi assay in L6-cells, beta-galactosidase/CPRG readout; type: cell-based; conditions: In vitro inhibition, read-out: T.cruzi.
How it was run: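 L6 rat myoblasts infected with Tulahuen C2C4 LacZ T. cruzi; after incubation, CPRG/Nonidet substrate added and colour developed 2–6 h. Absorbance at 540 nm; IC50 calculated; triplicate tests.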

[2] = system: intracellular Leishmania donovani (L.don. InMac); test: Intracellular Leishmania donovani assay (L.don. InMac); type: cell-based; conditions: In vitro inhibition
Source text: (§1) Tests were done in triplicate.

[3] = Cytotoxicity assay on L6-cells (Alamar Blue); conditions: rat, Cytotox L6, Cytotoxicity against rat myoblast cells (L6)
[4] = system: Trypanosoma brucei rhodesiense (STIB 900 strain); test: Alamar Blue assay against Trypanosoma brucei rhodesiense grown in axenic medium; type: cell-based; conditions: In vitro inhibition, read-out: T.b.rhod.
How it was run: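 T. b. rhodesiense STIB 900 cultured in axenic medium and exposed to samples in an Alamar Blue viability assay, run in triplicate. IC50 calculated from the readout; melarsoprol served as reference drug.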

[5] = system: Axenically grown Leishmania donovani amastigotes (strain MHOM/ET/67/L82); test: Axenic Leishmania donovani amastigote resazurin assay; type: cell-based; conditions: In vitro inhibition, read-out: L.don. ax
How it was run: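 Strain MHOM/ET/67/L82 amastigotes grown axenically and tested in triplicate by resazurin assay. Plates developed 2-4 hours, fluorescence read at 536 nm excitation/588 nm emission and expressed as percentage of negative control.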

Plasmodium falciparum = test: 3H-hypoxanthine incorporation assay against Plasmodium falciparum; type: cell-based; conditions: In vitro inhibition, read-out: P.falc NF5
Protocol: as §1
IC50 values were calculated by linear interpolation.

Structure (SMILES)	IC50 [1] [nM]	IC50 [2] [nM]	IC50 at 70 h [3] [nM]	IC50 [4] [nM]	IC50 [5] [nM]	IC50 (Plasmodium falciparum) [nM]
CCCCCCCC[C@H](NC(=O)[C@@H]1CCCN1C(=O)CCCCC)C(=O)N[C@@H](CC(C)C)C(=O)NC(C)(C)C(=O)N[C@@H](CC(C)C)C(=O)N[C@@H](CC(C)C)C(=O)NC(C)(C)C(=O)NC(C)(C)C(=O)NCCC(=O)N(C)CCN(C)C [Compound 5644, (2S)-N-[(1S)-1-[(1-{[(1S)-1-{[(1S)-1-{[1-({1-[(2-{[2-(dimethylamino)ethyl](methyl)carbamoyl}ethyl)carbamoyl]-1-methylethyl}carbamoyl)-1-methylethyl]carbamoyl}-3-methylbutyl]carbamoyl}-3-methylbutyl]carbamoyl}-1-methylethyl)carbamoyl]-3-methylbutyl]-2-{[(2S)-1-hexanoylpyrrolidin-2-yl]formamido}decanamide] (Hexanoyl-P[Gly(octyl)]L[Aib]LL[Aib][Aib][βAla]-X2)	1470	844	1240	208	148	26
CCCCCCCC[C@H](NC(=O)[C@@H]1CCCN1C(=O)CCCCC)C(=O)N[C@@H](CC(C)C)C(=O)NC(C)(C)C(=O)N[C@@H](CC(C)C)C(=O)N[C@@H](CC(C)C)C(=O)NC(C)(C)C(=O)NC(C)(C)C(=O)NCCC(=O)NCCN1CCOCC1 [Compound 5646, (2S)-2-{[(2S)-1-hexanoylpyrrolidin-2-yl]formamido}-N-[(1S)-3-methyl-1-[(1-methyl-1-{[(1S)-3-methyl-1-{[(1S)-3-methyl-1-{[1-methyl-1-({1-methyl-1-[(2-{[2-(morpholin-4-yl)ethyl]carbamoyl}ethyl)carbamoyl]ethyl}carbamoyl)ethyl]carbamoyl}butyl]carbamoyl}butyl]carbamoyl}ethyl)carbamoyl]butyl]decanamide] (Hexanoyl-P[Gly(octyl)]L[Aib]LL[Aib][Aib][βAla]-{NH(2-morpholinoethyl)})	392	99.5	1460	212	1.6	22.4
CCCCCCCC[C@H](NC(=O)[C@@H]1CCCN1C(=O)CCCCC)C(=O)N[C@@H](CC(C)C)C(=O)NC(C)(C)C(=O)N[C@@H](CC(C)C)C(=O)N[C@@H](CC(C)C)C(=O)NC(C)(C)C(=O)NC(C)(C)C(=O)NCCC(=O)NCCN1CCCCC1 [Compound 5647, (2S)-2-{[(2S)-1-hexanoylpyrrolidin-2-yl]formamido}-N-[(1S)-3-methyl-1-[(1-methyl-1-{[(1S)-3-methyl-1-{[(1S)-3-methyl-1-{[1-methyl-1-({1-methyl-1-[(2-{[2-(piperidin-1-yl)ethyl]carbamoyl}ethyl)carbamoyl]ethyl}carbamoyl)ethyl]carbamoyl}butyl]carbamoyl}butyl]carbamoyl}ethyl)carbamoyl]butyl]decanamide] (Hexanoyl-P[Gly(octyl)]L[Aib]LL[Aib][Aib][βAla]-{NHCH2CH2(piperidin-1-yl)})	13.4	62.1	182	3.6	3	0.6
CCCCCCCC[C@H](NC(=O)[C@@H]1CCCN1C(=O)CCCCC)C(=O)N[C@@H](CC(C)C)C(=O)NC(C)(C)C(=O)N[C@@H](CC(C)C)C(=O)N[C@@H](CC(C)C)C(=O)NC(C)(C)C(=O)NC(C)(C)C(=O)NCCC(=O)NCCN1C[C@@H](C)O[C@@H](C)C1 [Compound 5648, (2S)-N-[(1S)-1-[(1-{[(1S)-1-{[(1S)-1-({1-[(1-{[2-({2-[(2R,6S)-2,6-dimethylmorpholin-4-yl]ethyl}carbamoyl)ethyl]carbamoyl}-1-methylethyl)carbamoyl]-1-methylethyl}carbamoyl)-3-methylbutyl]carbamoyl}-3-methylbutyl]carbamoyl}-1-methylethyl)carbamoyl]-3-methylbutyl]-2-{[(2S)-1-hexanoylpyrrolidin-2-yl]formamido}decanamide] (Hexanoyl-P[Gly(octyl)]L[Aib]LL[Aib][Aib][βAla]-X11)	229	186	2280	54.7	0.5	26.9
CCCCCCCC[C@H](NC(=O)[C@@H]1CCCN1C(=O)CCN1CCOCC1)C(=O)N[C@@H](CC(C)C)C(=O)NC(C)(C)C(=O)N[C@@H](CC(C)C)C(=O)N[C@@H](CC(C)C)C(=O)NC(C)(C)C(=O)NC(C)(C)C(=O)NCCC(=O)N[C@@H](C)CN(C)C [Compound 5650, (2S)-N-[(1S)-1-[(1-{[(1S)-1-{[(1S)-1-{[1-({1-[(2-{[(2S)-1-(dimethylamino)propan-2-yl]carbamoyl}ethyl)carbamoyl]-1-methylethyl}carbamoyl)-1-methylethyl]carbamoyl}-3-methylbutyl]carbamoyl}-3-methylbutyl]carbamoyl}-1-methylethyl)carbamoyl]-3-methylbutyl]-2-{[(2S)-1-[3-(morpholin-4-yl)propanoyl]pyrrolidin-2-yl]formamido}decanamide] (X13-P[Gly(octyl)]L[Aib]LL[Aib][Aib][βAla]-{NH((S)CH(Me)CH2NMe2)})	133	188	492	15.3	105	11.1
CCCCCCCCCCCC(=O)N1CCC[C@H]1C(=O)N[C@@H](CCCCCCCC)C(=O)N[C@@H](CC(C)C)C(=O)NC(C)(C)C(=O)N[C@@H](CC(C)C)C(=O)N[C@@H](CC(C)C)C(=O)NC(C)(C)C(=O)NC(C)(C)C(=O)NCCC(=O)N[C@@H](C)CN(C)C [Compound 5651, (2S)-N-[(1S)-1-[(1-{[(1S)-1-{[(1S)-1-{[1-({1-[(2-{[(2S)-1-(dimethylamino)propan-2-yl]carbamoyl}ethyl)carbamoyl]-1-methylethyl}carbamoyl)-1-methylethyl]carbamoyl}-3-methylbutyl]carbamoyl}-3-methylbutyl]carbamoyl}-1-methylethyl)carbamoyl]-3-methylbutyl]-2-{[(2S)-1-dodecanoylpyrrolidin-2-yl]formamido}decanamide] (Lauroyl-P[Gly(octyl)]L[Aib]LL[Aib][Aib][βAla]-{NH((S)CH(Me)CH2NMe2)})	1370	707	498	3.3	53	0.8
CCCCCCCC[C@H](NC(=O)[C@@H]1CCCN1S(C)(=O)=O)C(=O)N[C@@H](CC(C)C)C(=O)NC(C)(C)C(=O)N[C@@H](CC(C)C)C(=O)N[C@@H](CC(C)C)C(=O)NC(C)(C)C(=O)NC(C)(C)C(=O)NCCC(=O)N[C@@H](C)CN(C)C [Compound 5652, (2S)-N-[(1S)-1-[(1-{[(1S)-1-{[(1S)-1-{[1-({1-[(2-{[(2S)-1-(dimethylamino)propan-2-yl]carbamoyl}ethyl)carbamoyl]-1-methylethyl}carbamoyl)-1-methylethyl]carbamoyl}-3-methylbutyl]carbamoyl}-3-methylbutyl]carbamoyl}-1-methylethyl)carbamoyl]-3-methylbutyl]-2-{[(2S)-1-methanesulfonylpyrrolidin-2-yl]formamido}decanamide] (Ms-P[Gly(octyl)]L[Aib]LL[Aib][Aib][βAla]-{NH((S)CH(Me)CH2NMe2)})	436	166	1410	4	8.1	4.6
